# Experimental data from publication PMC5064002, “Sintokamide A Is a Novel Antagonist of Androgen Receptor That Uniquely Binds Activation Function-1 in Its Amino-terminal Domain” (The Journal of Biological Chemistry, 2016).
# Like-named read-outs stand apart in the source and are kept apart here.
# Experiments:
# [1] = tested on: Tau5; design: method as in PMID 27356095; conditions: contact to residues 353–364, 397–407 and 433–466; cited from earlier work
# [2] = molecular target: T1, endogenous FL-AR (Homo sapiens, UniProt P10275, T878A); assay: Binding assay of click chemistry probes to full-length AR in LNCaP cells; conditions: 20 μM LPY probes or 25 μM EPI-053, click chemistry, Western blot
# T1 construct: endogenous in cells; host or cells: LNCaP
# T1 sequence (P10275 1-920 T878A): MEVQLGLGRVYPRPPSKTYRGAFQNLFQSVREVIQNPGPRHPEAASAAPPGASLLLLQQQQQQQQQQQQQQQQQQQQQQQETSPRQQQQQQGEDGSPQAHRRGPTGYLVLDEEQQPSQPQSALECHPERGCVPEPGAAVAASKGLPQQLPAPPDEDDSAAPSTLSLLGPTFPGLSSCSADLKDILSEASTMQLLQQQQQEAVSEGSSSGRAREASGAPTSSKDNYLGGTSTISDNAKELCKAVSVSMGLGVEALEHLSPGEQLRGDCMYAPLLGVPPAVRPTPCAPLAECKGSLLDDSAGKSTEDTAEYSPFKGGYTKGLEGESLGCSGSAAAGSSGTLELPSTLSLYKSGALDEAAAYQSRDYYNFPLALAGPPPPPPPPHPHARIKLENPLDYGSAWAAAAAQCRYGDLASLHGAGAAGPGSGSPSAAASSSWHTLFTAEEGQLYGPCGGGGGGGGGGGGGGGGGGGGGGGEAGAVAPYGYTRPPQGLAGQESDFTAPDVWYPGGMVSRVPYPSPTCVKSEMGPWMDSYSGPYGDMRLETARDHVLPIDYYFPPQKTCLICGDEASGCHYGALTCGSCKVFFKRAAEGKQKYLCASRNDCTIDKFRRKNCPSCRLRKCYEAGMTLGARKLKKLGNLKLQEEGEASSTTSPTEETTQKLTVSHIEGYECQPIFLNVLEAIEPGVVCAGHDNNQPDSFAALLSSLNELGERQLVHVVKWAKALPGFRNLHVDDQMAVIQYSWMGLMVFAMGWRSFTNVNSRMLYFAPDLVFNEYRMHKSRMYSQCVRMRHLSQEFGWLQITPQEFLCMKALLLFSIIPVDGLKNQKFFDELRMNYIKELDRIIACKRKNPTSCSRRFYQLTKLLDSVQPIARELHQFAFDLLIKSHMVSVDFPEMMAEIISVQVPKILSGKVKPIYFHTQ
# Experimental: LNCaP cells were treated for 24 h with 20 μM modified SINT1 (LPY19, -30, and -31) or the vehicle dimethyl sulfoxide (DMSO). 25 μM EPI-053 (a modified EPI-001 analog) was used as positive control ([5]). Proteins were extracted with lysis buffer and subjected to click chemistry conditions for 3 h at 25 °C in buffer containing 0.1% SDS, 5% t-butyl alcohol, 100 μM tris[(1-benzyl-1H-1,2,3-triazol-4-yl)methyl]amine (Sigma), 1 mM tris(2-carboxyethyl)phosphine, 100 μM biotin-azide reagent, and 1 mM CuSO4. Samples were dialyzed in 50 mM HEPES, pH 8.0, 150 mM NaCl, 0.1% SDS, and 1% Triton X-100 to remove excess biotin-azide reagent. Biotinylated soluble receptors were captured with streptavidin-agarose resin. Protein-SINT1 complexes were separated by 10% SDS-PAGE and subjected to Western blotting analysis using AR-N20 (1:1000) and biotin (1:1000) antibodies. Proteins were visualized using ECL detection reagent (Amersham Biosciences).
# To reveal whether SINT1 binds to endogenous AR, LNCaP cells were incubated with modified SINT1 click chemistry probes (LPY19, LPY30, and LPY31 shown in Fig. 2A). The EPI-002 click chemistry probe EPI-053 was used as a positive control ([5]). […] LNCaP cells were incubated overnight with these probes prior to click chemistry to add biotin to each click chemistry probe (see schema in Fig. 2B, right). Cell lysates were used for immunoprecipitation with streptavidin to isolate those proteins bound to biotinylated probes. Immunocomplexes were split with one aliquot used for Western blotting analysis using an antibody to biotin (Fig. 2B, left) and the other aliquot for Western blotting analysis using an antibody to AR (Fig. 2B, middle). […] Consistent with these biotin bands corresponding to AR, the AR was immunoprecipitated with streptavidin only in those immunocomplexes that were both positive for biotin (Fig. 2B) and biologically active against AR transcriptional activity (EPI-053, LPY30, and LPY31).
# [3] = molecular target: T2, AR (Homo sapiens, UniProt P10275, T878A); design: method as in PMID 23722902; conditions: cited from earlier work
# T2 construct: endogenous in cells; host or cells: LNCaP
# T2 sequence (P10275 1-920 T878A): T1 sequence (P10275 1-920 T878A)
# [4] = molecular target: T3, Histidine-tagged AR AF-1 recombinant protein (Homo sapiens, UniProt P10275); assay: Binding assay of click chemistry probes to recombinant AR AF-1; conditions: cell-free, AF1-His tag, 1:10 molar ratio, 37 °C 3 h
# T3 construct: made in house
# T3 sequence (P10275 142-485): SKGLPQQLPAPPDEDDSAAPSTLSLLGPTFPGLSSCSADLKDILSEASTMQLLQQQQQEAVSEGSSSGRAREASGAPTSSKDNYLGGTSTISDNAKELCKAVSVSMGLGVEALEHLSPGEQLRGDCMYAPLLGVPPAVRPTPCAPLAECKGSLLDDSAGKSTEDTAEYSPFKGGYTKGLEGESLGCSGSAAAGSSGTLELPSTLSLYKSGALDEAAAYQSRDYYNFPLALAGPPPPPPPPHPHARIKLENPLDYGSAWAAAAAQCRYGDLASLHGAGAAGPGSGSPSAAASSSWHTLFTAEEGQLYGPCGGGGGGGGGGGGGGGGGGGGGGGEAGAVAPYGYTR
# Experimental: Histidine-tagged AR AF-1 recombinant protein was expressed and purified as described ([5]). The binding reaction was carried out by mixing AR AF-1 protein with alkyne-containing LPY probes or DMSO at a 1:10 molar ratio and incubated in buffer containing 10 mM HEPES, pH 7.9, and 100 mM NaCl at 37 °C for 3 h. LPY probes were labeled with biotin by copper-catalyzed click chemistry reaction at 25 °C for 1 h ([5]). Samples were resolved by 10% SDS-PAGE, and Western blotting was performed to detect biotin and histidine-tagged AR AF-1 using IRDye® 680LT streptavidin (1:5000) and anti-His (1:1000) antibody, respectively.
# Therefore, we next evaluated whether SINT1 binds the AF-1 region in AR NTD. Purified recombinant AF-1 protein (AF1-His tag) was incubated under cell-free conditions with LPY19, LPY30, and LPY31 prior to click chemistry to add a biotin to the LPY probe (see schema in Fig. 2C, right).
# [5] = molecular target: T2, AR; assay: AR transcriptional activity of SINT1 click chemistry probes, PSA (6.1 kb)-luciferase in LNCaP cells; type: cell-based; conditions: for biological activity measured using an AR-driven reporter gene construct: 40 μM LPY19, 20 μM LPY30 and LPY31
# Experimental: FIGURE 2. SINT1 binds endogenous AR in living cells to inhibit transactivation of AR NTD. A, chemical structures of EPI-002, EPI-053, LPY19, LPY30, LPY31, and SINT1 (left). The effect of SINT1 probes in AR transcriptional activity was tested in LNCaP cells transiently transfected with PSA (6.1 kb)-luciferase and exposed for 1 h to 40 μM LPY19 and 20 μM LPY30 and LPY31 before induction with 1 nM […] for 48 h. Error bars represent the mean ± S.E. of n = 3 independent experiments with triplicate wells (right). B, binding of SINT1 click chemistry analogs to FL-AR in cells. LNCaP cells were exposed to modified SINT1 (LPY19, -30, and -31), EPI-053, or DMSO vehicle overnight prior to preparing whole cell lysates for click chemistry reactions. Biotinylated SINT1 or EPI probes bound to proteins were captured with streptavidin-agarose resin prior to separation by 10% SDS-PAGE and subjected to Western blotting analysis with antibodies directed to either biotin (left) or AR (middle). Red boxes highlight where AR migrates on the gel. Right, schema of experiment. […] Right, schema of experiment.
# [6] = tested on: LNCaP95 cells; assay: Cell proliferation (BrdU incorporation), LNCaP95; type: cell-based; conditions: 48 h
# Experimental: Cells were pulse-labeled with 10 μM BrdU for 2 h. Cells were fixed, and BrdU-labeled cells were identified with anti-BrdU-peroxidase (Roche Applied Science). BrdU incorporation was measured at 570 nm using a VersaMax ELISA microplate reader (Molecular Devices). At least three independent experiments with six technical replicates were analyzed, and average values are indicated.
# [7] = molecular target: T4, progesterone receptor (PR)-β (Homo sapiens, UniProt P06401); assay: Steroid receptor specificity: PRE-luciferase reporter in LNCaP cells; type: cell-based; conditions: 10 μM compound, 10 nM 4-pregnene-3,20-dione, 48 h
# T4 construct: expressed in transfected cells; host or cells: LNCaP
# T4 sequence (P06401 1-933): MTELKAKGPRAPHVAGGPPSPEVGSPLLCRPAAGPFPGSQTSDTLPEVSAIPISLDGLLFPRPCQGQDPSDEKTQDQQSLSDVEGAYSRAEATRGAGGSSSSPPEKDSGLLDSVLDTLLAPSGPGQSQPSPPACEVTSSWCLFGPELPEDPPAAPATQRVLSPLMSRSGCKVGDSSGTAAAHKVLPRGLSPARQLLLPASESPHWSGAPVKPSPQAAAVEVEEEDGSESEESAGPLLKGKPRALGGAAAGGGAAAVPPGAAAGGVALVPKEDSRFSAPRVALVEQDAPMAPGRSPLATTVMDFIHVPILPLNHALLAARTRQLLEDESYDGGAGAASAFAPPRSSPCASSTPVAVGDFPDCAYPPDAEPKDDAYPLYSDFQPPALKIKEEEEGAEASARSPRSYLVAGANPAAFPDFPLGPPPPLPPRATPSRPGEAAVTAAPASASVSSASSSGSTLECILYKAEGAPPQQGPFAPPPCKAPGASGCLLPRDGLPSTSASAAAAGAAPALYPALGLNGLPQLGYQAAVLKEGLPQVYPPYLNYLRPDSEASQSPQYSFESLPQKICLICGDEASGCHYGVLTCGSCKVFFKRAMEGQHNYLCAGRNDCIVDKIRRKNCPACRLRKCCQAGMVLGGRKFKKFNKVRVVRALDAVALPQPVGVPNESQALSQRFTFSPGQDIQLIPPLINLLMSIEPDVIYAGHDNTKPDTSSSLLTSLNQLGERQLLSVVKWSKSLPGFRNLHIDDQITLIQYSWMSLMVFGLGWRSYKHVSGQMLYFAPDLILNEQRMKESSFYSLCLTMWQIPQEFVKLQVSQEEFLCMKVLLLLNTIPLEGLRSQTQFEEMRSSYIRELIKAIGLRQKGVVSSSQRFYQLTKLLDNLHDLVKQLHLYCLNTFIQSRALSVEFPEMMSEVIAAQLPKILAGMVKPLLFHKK
# Experimental: LNCaP cells were transfected with the reporter plasmid PSA(6.1kb)-luciferase, PRE-luciferase, or GRE-luciferase and expression vector for progesterone receptor (PR)-β or glucocorticoid receptor (GR)-α in serum-free, phenol red-free medium using Lipofectin (Invitrogen). […] After 48 h of treatment, cells were lysed and analyzed for luciferase activities.
# FIGURE 1. […] A, LNCaP cells were transfected with PSA (6.1 kb)-luciferase, PRE-luciferase, or GRE-luciferase reporters and expression vector for PRβ or GRα. […] Error bars represent mean percentage of vehicle activity ±S.E. of at least three independent experiments with triplicate wells. SINT1, 10 μM; […]; ***, p < 0.001. […]. Error bars represents mean ± S.E. of three technical replicates. […] DAPI staining indicates the location of the nucleus. Scale bars, 20 μm.
# [8] = LNCaP, PSA (6.1 kb)-luciferase, 1 nM R1881 48 h
SMILES,binding to endogenous FL-AR (biotin band corresponding to AR after streptavidin capture) [2],binding of biotinylated probe to AF-1 [4],"biological activity measured using an AR-driven reporter gene construct [5, 8]",further results
CC(C)(c1ccc(OCC(O)CO)cc1)c1ccc(OCC(O)CCl)cc1 (stereo not drawn) [EPI-001],,,,binding to Tau5 by NMR spectroscopy [1]: binds in a pocket in Tau5
"C#CCOC[C@H](O)COc1ccc(C(C)(C)c2ccc(OC[C@H](O)CCl)cc2)cc1 [EPI-053, reference compound]",a band corresponding to AR,,,biological activity measured using an AR-driven reporter gene construct [3]: had biological activity
C#CCCC(=O)N[C@H](CC(C)C)C(=O)N1C(=O)C=C(OC)[C@@H]1CC(C)C [LPY19],not,no binding,very weak activity,"activity at 20 μM, AR-driven reporter ([5]; 20 μM): inactive; IC50 ([5]; LNCaP, PSA (6.1 kb)-luciferase, 1 nM R1881 48 h, read-out: IC50, AR-driven reporter gene construct): ~40 µM"
C#CCCC(=O)NC(CCC(Cl)(Cl)Cl)C(=O)N1C(=O)C=C(OC)C1CCC(Cl)(Cl)Cl (stereo not shown) [LPY30],a band corresponding to AR,binding,had biological activity,
"CC(O)(CS(=O)(=O)c1ccc(F)cc1)C(=O)Nc1ccc(C#N)c(C(F)(F)F)c1 (stereo not shown) [bicalutamide, reference compound]",,,,proliferation of LNCaP95 cells [6]: no effect; PR transcriptional activity (PRE-luciferase) [7]: inhibited
